From publication PMC6704710, “Preclinical evaluation of 3D185, a novel potent inhibitor of FGFR1/2/3 and CSF-1R, in FGFR-dependent and macrophage-dominant cancer models” (Journal of Experimental & Clinical Cancer Research : CR, 2019)

Assays:
HUH7 = experiment: Cell proliferation assay; format: cell-based, human; details: 72 h, mean ± SD
Procedure: (§1) The cancer cell lines indicated in Figure 3 were seeded in 96-well plates at a low density in growth medium. The next day, appropriate controls or the designated concentrations of the compounds were added to each well, and the cells were incubated for 72 h. HUVECs (passage 3) were seeded in 96-well plates in growth medium overnight and transferred to serum-free medium for 24 h. The following day, appropriate controls or the designated concentrations of the compounds were added to each well, and 100 ng/mL growth factor (bFGF or VEGF) was added to the indicated wells. The cells were incubated for 48 h. Finally, cell proliferation was determined using a sulforhodamine B (SRB) assay or a cell counting kit-8 (CCK-8) assay. […] IC50 values for proliferation curves were calculated using a 4-parameter logistic nonlinear regression model with SoftMax Pro Software (Molecular Devices, San Jose, USA).

KATOIII = experiment: Cell proliferation assay; format: cell-based, human; details: 72 h, mean ± SD
Procedure: as §1

KG-1 = experiment: Cell proliferation assay; format: cell-based, human; details: 72 h, mean ± SD
Procedure: as §1

NCI-H1581 = experiment: Cell proliferation assay; format: cell-based, human; details: 72 h, mean ± SD
Procedure: as §1

NCI-H716 = experiment: Cell proliferation assay; format: cell-based, human; details: 72 h, mean ± SD
Procedure: as §1

OPM2 = experiment: Cell proliferation assay; format: cell-based, human; details: 72 h, mean ± SD
Procedure: as §1

RT112 = experiment: Cell proliferation assay; format: cell-based, human; details: 72 h, mean ± SD
Procedure: as §1

SNU16 = experiment: Cell proliferation assay; format: cell-based, human; details: 72 h, mean ± SD
Procedure: as §1

SUM52PE = experiment: Cell proliferation assay; format: cell-based, human; details: 72 h, mean ± SD
Procedure: as §1

UMUC14 = experiment: Cell proliferation assay; format: cell-based, human; details: 72 h, mean ± SD
Procedure: as §1

M-NFS-60 = experiment: Cell proliferation assay; format: cell-based, mouse; details: 72 h, mean ± SD
Procedure: as §1

BMDM (CSF-1) = experiment: Macrophage survival (CCK-8); format: cell-based, murine; details: 7 days, mean ± SD
Procedure: (§2) Murine bone marrow and human monocytes were stimulated with CSF-1 for 7 days together with the indicated inhibitor, and cell viability was evaluated by the CCK-8 assay. The IC50 values are shown as the mean ± SD (nM) from two independent tests. B-E, To test the impact of 3D185 on the polarization of CSF-1-induced macrophages, murine bone marrow cells and human monocytes were induced to mature into macrophages with CSF-1 for 7 days and then stimulated with CSF-1, IL-4 and IL-13 for an additional 48 h. The expression of the markers MHC-II (b), CD86 (c), and CD206 (d) on induced murine macrophages and CD206 expression on induced human macrophages (e) were determined by flow cytometry, and the mean fluorescence intensity (MFI) was analyzed with FlowJo. Representative data from two independent experiments. f Murine bone marrow cells (left panel) and human monocytes (right panel) were induced to mature into macrophages with CSF-1 for 7 days and then stimulated with CSF-1, IL-4 and IL-13 and treated with vehicle or the indicated inhibitor for an additional 48 h. Then, all cells were collected to count viable cells by staining with trypan blue
(§3) Murine bone marrow-derived macrophages (BMDMs) and PBMCs were used for cell viability studies. BMDMs were harvested by flushing the tibias and femurs of 6- to 8-week-old C57BL/6 mice and depleting red blood cells (RBCs) by RBC lysis (Biogems). For BMDM survival, the cells were cultured for 7 days in RPMI 1640 containing 10% fetal bovine serum (FBS), 100 U/mL penicillin, 100 μg/mL streptomycin and 100 ng/mL mouse CSF-1 (or CSF-2) with or without the tested compounds. PBMCs were obtained from HemaCare and cultured for 7 days in RPMI 1640 containing 10% fetal bovine serum (FBS), 100 U/mL penicillin, 100 μg/mL streptomycin and 100 ng/mL human CSF-1 (or CSF-2) with or without the tested compounds. Cell viability was measured using the CCK-8 assay. For IL-4/IL-13-induced macrophage survival analysis, viable cells were counted by trypan blue exclusion.

BMDM (CSF-2) = experiment: Macrophage survival (CCK-8); format: cell-based, murine; details: 7 days
Procedure: as §3

PBMC (CSF-1) = experiment: Macrophage survival (CCK-8); format: cell-based; details: Homo sapiens, 168 h, 7 days, mean ± SD
Procedure: as §2
Murine bone marrow-derived macrophages (BMDMs) and PBMCs were used for cell viability studies. […] Cell viability was measured using the CCK-8 assay. For IL-4/IL-13-induced macrophage survival analysis, viable cells were counted by trypan blue exclusion.

PBMC (CSF-2) = experiment: Macrophage survival (CCK-8); format: cell-based; details: Homo sapiens, 168 h, 7 days
Procedure: as §3

[1] = system: CSF-1-differentiated macrophages induced RT112 cell migration; experiment: Tumor cell migration assay (Transwell co-culture); format: cell-based, human; details: 25 nM, 24 h
[2] = system: MC38 colorectal adenocarcinoma model; experiment: In vivo antitumor activity, MC38 model; parameters: species or system C57BL/6 mice; details: oral once daily 23 days
Procedure: For the MC38 xenograft model, 6-week-old C57BL/6 mice were housed and maintained under specific pathogen-free conditions. Tumor cells (2 × 10^6 in 200 μL) were injected subcutaneously (s.c.) into the right flanks of C57BL/6 mice. […] The tumors were measured twice per week using a microcaliper. Tumor volume (TV) was calculated as follows: TV = (length × width^2)/2. In addition, the individual relative tumor volume (RTV) was calculated as follows: RTV = Vt / V0, where Vt is the volume on a particular day and V0 is the volume at the beginning of the treatment. The RTV is shown on the indicated days as the […] ± SEM for the indicated groups of mice.

Molecule	IC50 (HUH7)	IC50 (KATOIII)	IC50 (KG-1)	IC50 (NCI-H1581)	IC50 (NCI-H716)	IC50 (OPM2)	IC50 (RT112)	IC50 (SNU16)	IC50 (SUM52PE)	IC50 (UMUC14)	IC50 (M-NFS-60)	IC50 (BMDM (CSF-1))	IC50 (BMDM (CSF-2))	IC50 (BMDM (CSF-1); Mus musculus, BMDM, 168 h)	IC50 (BMDM (CSF-2); Mus musculus, BMDM, 168 h)	IC50 (PBMC (CSF-1))	IC50 (PBMC (CSF-2))	effect on macrophage-induced RT112 cell migration [1]	effect on MC38 tumor growth [2]
AZD4547 [reference compound]	284 ± 22.5 nM	15.1 ± 2.9 nM	3 ± 0.3 nM	43.8 ± 8.6 nM	7 ± 0.9 nM	33 ± 7.6 nM	83.3 ± 6.4 nM	2.7 ± 0.4 nM	15.5 ± 2.4 nM	52.9 ± 4.6 nM	1230 ± 184 nM	883 ± 133 nM	> 1000 nM						
FC(F)(F)c1ccc(CNc2ccc(Cc3c[nH]c4ncc(Cl)cc34)cn2)cn1 [PLX3397, reference compound]														195 ± 48.2 nM	> 1000 nM	220 ± 38.6 nM	> 1000 nM	no inhibitory effect	delayed tumor growth
